How the values were obtained:
[1] = tested on: endometrial proliferation (uterine lace); assay: Progestomimetic activity: endometrial transformation in the rabbit (Clauberg-McPhail test); format: in vivo; design: key to Maximal activity on the uterine lace (McPhail index) / Average uterine lace (McPhail Index): McPhail scale 0–4 with 0.5 steps (endometrial proliferation); conditions: for Average uterine lace (McPhail Index): day 8 to day 11
Method: 2. --Determination of the progestomimetic activity of the products of the invention: Endometrial transformation in the rabbit. The animals used were impuberal female rabbits which were 40-45 days old. The animals were treated with estradiol (5 ug/0.2 ml/rabbit in solution of corn oil, 10% ethanol) by subcutaneous route from day 1 to day 5, then the product to be studied was administered from day 8 to day 11. On day 12, the animals were sacrificed and a median portion of each uterine cornua was removed from each animal and fixed in Bouin's liquid for histological study. After fixing, the samples were dehydrated, included, cut, mounted, the paraffin was removed and then the sample was stained with hemalum-eosin-saffron. […] Then, for each of the cornua, a semi-quantitative evaluation of the endometrial proliferation (uterine lace) was carried out by the McPhail scale from 0 to 4 with 0.5 intermediates and the two figures were averaged. Similarly, the degree of hypertrophy of the cornua was evaluated by the same scale. At higher magnification, morphological observations of the mucous membrane or the myometrium could possibly be formulated. The 1-OH metabolite (product A) was tested at doses of 10, 100, 1000 μg/kg by subcutaneous route as well as orally at a dose of 1000 μg/kg. The 6-OH metabolite (product B) was tested at doses of 100, 1000 and 10000 μg/kg subcutaneously. As a control, progesterone was administered at doses of 100 and 1000 μg/kg by subcutaneous route. The averages were produced for the uterine lace (McPhail Index).

[2] = molecular target: T1, Human progesterone receptor (HPR) (Homo sapiens, UniProt P06401); assay: Relative bond affinity (RBA), recombinant human progestogen receptor, charcoal dextran technique; format: binding; conditions: relative to Trimegestone
T1 construct: made in house; host or cells: SF9 insect cells (ATCC CRL1711), baculovirus, lysate supernatant
T1 sequence (P06401 1-933): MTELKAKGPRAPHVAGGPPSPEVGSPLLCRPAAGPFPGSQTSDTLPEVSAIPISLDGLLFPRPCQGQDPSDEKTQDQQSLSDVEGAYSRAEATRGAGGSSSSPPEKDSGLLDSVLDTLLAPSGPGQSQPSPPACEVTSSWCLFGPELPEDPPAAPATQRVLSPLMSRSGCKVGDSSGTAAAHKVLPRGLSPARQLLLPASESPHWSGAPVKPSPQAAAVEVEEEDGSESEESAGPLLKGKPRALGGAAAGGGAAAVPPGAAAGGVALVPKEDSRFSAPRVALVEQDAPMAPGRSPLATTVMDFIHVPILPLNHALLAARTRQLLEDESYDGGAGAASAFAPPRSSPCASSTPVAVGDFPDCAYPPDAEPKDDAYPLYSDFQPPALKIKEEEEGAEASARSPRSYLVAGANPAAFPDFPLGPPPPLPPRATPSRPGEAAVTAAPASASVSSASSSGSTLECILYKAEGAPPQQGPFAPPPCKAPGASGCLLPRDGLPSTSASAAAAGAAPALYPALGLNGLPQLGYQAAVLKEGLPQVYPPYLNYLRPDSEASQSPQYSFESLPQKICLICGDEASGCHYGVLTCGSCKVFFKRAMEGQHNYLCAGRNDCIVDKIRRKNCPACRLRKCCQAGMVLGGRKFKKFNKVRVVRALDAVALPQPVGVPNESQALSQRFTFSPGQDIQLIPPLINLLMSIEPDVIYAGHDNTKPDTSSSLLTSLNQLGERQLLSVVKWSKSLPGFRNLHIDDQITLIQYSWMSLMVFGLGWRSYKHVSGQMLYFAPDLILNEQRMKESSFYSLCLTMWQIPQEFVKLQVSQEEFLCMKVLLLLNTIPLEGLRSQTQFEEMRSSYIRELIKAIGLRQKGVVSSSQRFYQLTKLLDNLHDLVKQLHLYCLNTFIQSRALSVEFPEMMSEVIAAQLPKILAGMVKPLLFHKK
Text: The human recombinant receptor (HGR, HPR, HAR, HMR, HER) was used.
Human progesterone receptor (HPR):
The recombinant human progestogen receptor was obtained by the superexpression in a cell system of insects--Baculovirus, according to the methodology described by Webb et al (Journal of Methods in Cell and Molecular Biology, (1990) Vol. 2 No. 4, p. 173-188) and the application of which was described for the expression of human hormonal receptors, for example the human glucocorticoid receptor (Srinivasan et al, Molecular Endocrinology, (1990) Vol. 4 No. 2, p. 209-216.
The BaculoGold Transfection Kit (PharMingen, reference 21000K) was used to insert the cDNA fragment described by Kastner et al (The EMBO Journal, (1990), Vol. 9 No. 5, p. 1603-1614), containing the region coding for the human progestogen receptor and to prepare the corresponding recombinant virus. The recombinant virus obtained in this way was used to express the progestogen receptor in SF9 insect cells (ATCC CRL1711), according to the known methodology cited previously.
2×10^7 to 2.5×10^7 SF9 cells were cultured in a 175 ml "Falcon" flask in the TNM-FH medium supplemented with 10% fetal calf serum (FCS) and with 50 micrograms/ml of gentamycin. After infection, then incubation at 27° C. for 40 to 42 hours, the cells were taken up in 1 ml of lysis buffer (1), lysed by 2 cycles of freezing-thawing (-80° C./ 0° C.), then centrifuged at 4° C. for 30 minutes at 20,900 g. The supernatant, containing the recombinant human progestogen receptor, was stored in liquid nitrogen in quantities of 1 ml.
The supernatant was diluted at the time of use with 10 mM Tris buffer, 0.25M saccharose, HCl pH 7.4 containing 0.1% of gelatin and then incubated at 0° C. for 24 hours with a constant concentration (T) of tritiated 17α, 21-dimethyl-19-nor-Δ^4,9 pregnadiene-3,20-dione in the presence of increasing concentrations of either unlabelled progesterone (0-2500×10^-9 M), or the unlabelled product to be tested (1 to 25000×10^-9 M). The concentration of bound tritiated 17,21-dimethyl-19-nor-Δ^4,9 -pregnadiene-3,20-dione (B) was then measured in each incubate using the charcoal dextran adsorption technique.
Calculation of the relative bond affinity (RBA).
The following two curves were drawn: the percentage of bound tritiated hormone B/BO as a function of the logarithm of the concentration of unlabelled reference hormone or as a function of the logarithm of the concentration of unlabelled test product. The straight line of the following equation was determined: […]
The relative bond affinity (RBA) of the test product was determined by the equation: […]

SMILES	Average uterine lace (McPhail Index) ([1]; rabbit, 0,01 mg/kg, s/c)	Average uterine lace (McPhail Index) ([1]; rabbit, 0,1 mg/kg, s/c)	Hypertrophy of the cornua ([1]; rabbit, 1 mg/kg p/o route versus s/c route)	Average uterine lace (McPhail Index) ([1]; rabbit, 1 mg/kg, per os)	Average uterine lace (McPhail Index) ([1]; rabbit, 1 mg/kg, s/c, 1 mg/kg)	RBA for the human progestogen receptor, times weaker than that of Trimegestone [2] [times]	Maximal activity on the uterine lace (McPhail index) ([1]; rabbit, 1000 μg/kg by subcutaneous route (note))	Average uterine lace (McPhail Index) ([1]; rabbit, 1 mg/kg, s/c)
C[C@H](O)C(=O)[C@@]1(C)CC[C@H]2[C@@H]3CCC4=CC(=O)C[C@H](O)C4=C3CC[C@@]21C [Product A, [1α, 17β-(S)]-1-hydroxy-17-(2-hydroxy-1-oxopropyl)-17-methyl-Δ^4,9-estradiene-3-one]	3,8	3,8	stronger hypertrophy of the cornua	4	3,8	9		
CC(=O)[C@H]1CC[C@H]2[C@@H]3CCC4=CC(=O)CC[C@]4(C)[C@H]3CC[C@]12C [Progesterone, reference compound]		1,8					4	3,8
